Results as given in the supplement of paper PMC10307832.

Experiments:
Assay in all cases: relative viability (nuclei count vs DMSO), 5 days (fraction); higher = more cells survive
[1] = compound: O=C(CCCCCCNC(=O)c1cnc(N(c2ccccc2)c2ccccc2)nc1)NO [Ricolinostat] + C[C@]1(O)C[C@@H](c2nc(-c3ccc4ccc(-c5ccccc5)nc4c3)c3c(N)nccn32)C1 [Linsitinib] (partner 1 µM)
How it was run: (§1)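 Lung cancer cell lines were seeded in 1536-well plates and dosed by pin tool the next day, with either a single drug or a fixed anchor-drug dose combined with five library-drug doses (not always all listed) spaced in √10 steps. Five days later, one step fixed the cells and stained their nuclei (final 0.05% Triton X-100, 1% formaldehyde, 1 ug/ml Hoechst), and nuclei were counted on 4× images. Relative viability is the nuclei count in treated wells divided by the count in vehicle wells, and each value is the median of duplicate plates.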

[2] = compound: CC1=CN2C(=O)C=C(N=C2C(=C1)C(C)NC3=CC=CC=C3)N4CCOCC4 [TGX 221] + CC(=O)Nc1cccc(-n2c(=O)n(C3CC3)c(=O)c3c(Nc4ccc(I)cc4F)n(C)c(=O)c(C)c32)c1 [Trametinib] (partner 0.02 µM)
How it was run: as §1

[3] = compound: CC1=CN2C(=O)C=C(N=C2C(=C1)C(C)NC3=CC=CC=C3)N4CCOCC4 [TGX 221] + C[C@@H](Oc1cc(-c2cnn(C3CCNCC3)c2)cnc1N)c1c(Cl)ccc(F)c1Cl [Crizotinib] (partner 1 µM)
How it was run: as §1

[4] = compound: C1=CC=C(C(=C1)C2=CC=C(C=C2)C3=CSC4=C3C(=C(C(=O)N4)C#N)O)O + Nc1nc2[nH]cc(CCc3ccc(C(=O)N[C@@H](CCC(=O)O)C(=O)O)cc3)c2c(=O)[nH]1 [Pemetrexed] (partner 0.2 µM)
How it was run: as §1

NCI-H1792 showed a relative viability ([1]; first compound 0.08 µM) of 0.438, a relative viability ([1]; first compound 0.253 µM) of 0.545 and a relative viability ([1]; first compound 0.8 µM) of 0.43. It also gave a relative viability ([1]; first compound 2.53 µM) of 0.428, a relative viability ([2]; first compound 0.08 µM) of 0.436 and a relative viability ([2]; first compound 0.253 µM) of 0.414. The relative viability ([2]; first compound 0.8 µM) was 0.366, the relative viability ([2]; first compound 2.53 µM) was 0.277 and the relative viability ([2]; first compound 8 µM) was 0.313. It also gave a relative viability ([3]; first compound 0.08 µM) of 0.883, a relative viability ([3]; first compound 0.253 µM) of 1.08 and a relative viability ([3]; first compound 0.8 µM) of 0.944. It also gave a relative viability ([3]; first compound 2.53 µM) of 0.948, a relative viability ([3]; first compound 8 µM) of 0.857 and a relative viability ([4]; first compound 0.253 µM) of 0.835. For the same cell line, the relative viability ([4]; first compound 0.8 µM) was 0.714, the relative viability ([4]; first compound 2.53 µM) was 0.649 and the relative viability ([4]; first compound 8 µM) was 0.477.
